The subject of assay [1] is Leishmania major promastigotes (MHOM/UZ/91/PM2). The assay can be described thus: Analysis of in vitro anti-leishmanial activity (growth inhibition of L. major/egfp promastigotes, fluorescence). The settings on record: 25° C., 72 h, inhibition with Amphotericin B (positive control) defined as 100%, FIG. 9. In kind it is cell-based. The source says:
The compounds represented by formulas (1) to (6), which had been isolated by the procedure described above, were subjected to an analysis of the physiological activity under the conditions that are described below. Leishmania major promastigotes (MHOM/UZ/91/PM2) were selected as the Leishmania protozoa, and a L. major/egfp promastigotes in which a fluorescent protein egfp gene had been introduced was used. The compounds mentioned above were used as samples. Thus, the growth inhibition rate was determined under the following conditions.
Promastigotes of transgenic Leishmania major (MHOM/UZ/91/PM2) expressing enhanced green fluorescent protein (L. major/egfp) were maintained at 25° C. in 199 medium (NISSUI Pharmaceutical, Tokyo, Japan) containing 10% fetal bovine serum, 25 mM Hepes buffer (MP Biomedicals, LLC) and 10 μg/mL […] (SIGMA-ALDRICH, inc., USA). […] Thereafter, fluorescence signals of L. major/egfp promastigotes were measured with a fluorescence microplate reader (Fluoroscan Ascent FL, Dainippon. Pharmaceutical Co., Osaka, Japan) with excitation at 485 nm and emission at 538 nm. […]

Another assay concerns L. major PM2. The assay can be described thus: Analysis of in vivo anti-leishmanial activity (leishmaniasis mouse model). The settings on record: mice infected with 1×10^7 promastigotes of L. major PM2; 200 μg by peritoneal injection once a day for three weeks; size of ulcer, antibody titer in blood, protozoan DNA in blood (FIG. 10-12). The method, then:
In order to evaluate the in vivo anti-leishmanial activity of the compound represented by formula (3), which had been isolated by the procedure described above, a leishmaniasis mouse model was used to investigate the therapeutic effect. Six-week old mice ([…], male, 6 animals per group) were infected with 1×10^7 cells of cultured promastigotes of L. major PM2. From the day after the infection day, the compound represented by the formula (3) was administered to each specimen in an amount of 200 μg by peritoneal injection. The administration schedule was such that the compound was continuously administered once a day for three weeks. Further, as control, the same analysis was carried out also for a treatment group to which Amphotericin B was administered, and for a treatment group to which none was administered.

From patent US8809555B2, “Anti-leishmanial compound and anti-leishmanial drug” (Aoyama Gakuin Educational Foundation, priority 2010, dated 2014) come the findings set out here.

As for `CC(C)=CCC/C(C)=C/CC/C(C)=C/CC/C(C)=C/CC1(CC(=O)O)CC(=O)C=CC1=O` (centres unmarked) [formula (3)], in assay [1], the growth inhibition rate entry is given as “almost equal to the growth inhibition rate of Amphotericin B”. In addition, the “in vivo anti-leishmanial activity” value in the assay with L. major PM2 is reported as “equal to that of Amphotericin B”.
